Drawing on patent US20230151014A1 (Repare Therapeutics Inc., priority 2020, published 2023), this text covers IC50 for 51 compounds.

The target in this assay is T1, recombinant human Myt1 (Homo sapiens, UniProt Q99640).
T1 construct: full length PKMYT1 recombinant human protein expressed in insect cells
T1 sequence (Q99640 1-499): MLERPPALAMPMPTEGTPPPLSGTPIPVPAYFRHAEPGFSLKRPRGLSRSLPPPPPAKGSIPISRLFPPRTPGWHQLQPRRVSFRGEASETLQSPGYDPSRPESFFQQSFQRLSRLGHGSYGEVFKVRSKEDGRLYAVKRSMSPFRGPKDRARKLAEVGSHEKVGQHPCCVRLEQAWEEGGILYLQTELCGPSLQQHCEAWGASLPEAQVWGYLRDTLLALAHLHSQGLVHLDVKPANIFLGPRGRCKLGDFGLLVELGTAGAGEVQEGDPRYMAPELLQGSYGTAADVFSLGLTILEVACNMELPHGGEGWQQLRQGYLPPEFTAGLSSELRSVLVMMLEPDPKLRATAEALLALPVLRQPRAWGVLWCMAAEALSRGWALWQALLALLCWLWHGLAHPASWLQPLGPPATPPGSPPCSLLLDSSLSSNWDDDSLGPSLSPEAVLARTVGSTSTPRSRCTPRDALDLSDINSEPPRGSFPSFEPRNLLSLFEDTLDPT
The assay is described as follows: Myt1 enzymatic assay (ADP-Glo kinase assay, IC50 and % max inhibition). The note with it: recombinant human Myt1 18 nM, ATP 10 μM. It is filed as biochemical. How it is done:
Detection of Myt1 kinase activity utilized a recombinant human Myt1 kinase assay measuring the hydrolysis of ATP using a commercially available ADP-Glo Assay (ADP-Glo™ Kinase Assay from Promega, 10 000 assays, #V9102). […] After this, 5 μL of compounds (diluted in reaction buffer to 0.5% DMSO) was added to the microplate and the plate was spun briefly and incubated at 22° C. for 15 minutes. Ultra-Pure Adenosine Triphosphate (ATP) solution (ADP-Glo kit from Promega) was diluted in reaction buffer and 5 μL was added to the microplate, spun down briefly and incubated for 60 minutes at 30° C. […] After the 60-minute incubation, 15 μL of ADP-Glo reagent was added and the plate was spun briefly and sealed and incubated in the dark for 40 minutes at 22° C. […] Luminescence was read using the Envision (250 ms integration). The IC50 and the % max inhibition were calculated for each inhibitor compound tested.
In general, IC50 refers to the concentration needed to halve the response being measured. In the case of `Cc1ccc(O)cc1-n1c(N)c(C(N)=O)c2nc(CCCN3CCOCC3)ccc21` [Compound 18, 2-amino-1-(5-hydroxy-2-methyl-phenyl)-5-(3-morpholinopropyl)pyrrolo[3,2-b]pyridine-3-carboxamide], the IC50 turned out to be 1940 nM.
The value for `Cc1ccc(O)c(C)c1-n1c(N)c(C(N)=O)c2nc(N3CCNCC3)cnc21` [Compound 67] was 14 nM; that for `Cc1ccc(O)cc1-n1c(N)c(C(N)=O)c2nc(-c3cc[nH]n3)ccc21` [Compound 11] was 252 nM.
With `Cc1ccc(O)c(C)c1-n1c(N)c(C(N)=O)c2c(C)c(Cl)cnc21` [Compound 313] the figure was below 10 nM; with `Cc1ccc(O)c(C)c1-n1c(N)c(C(N)=O)c2nc(N3CCS(=O)(=O)CC3)cnc21` [Compound 75], 11 nM.
The value for `Cc1ccc(O)c(C)c1-n1c(N)c(C(N)=O)c2nc(C#N)cnc21` [Compound 219, 6-amino-2-cyano-5-(3-hydroxy-2,6-dimethyl-phenyl)pyrrolo[2,3-b]pyrazine-7-carboxamide] was 46 nM; that for `Cc1ccc(O)c(C)c1-n1c(N)c(C(N)=O)c2cc(Br)cnc21` [Compound 141] was below 10 nM.
As for `Cc1ccc(O)c(C)c1-n1c(N)c(C(N)=O)c2cc(I)cnc21` [Compound 319], the IC50 was below 10 nM.
In the case of `Cc1ccc(O)c(C)c1-n1c(N)c(C(N)=O)c2nc(C3=CCCCC3)cnc21` [Compound 86], the half-inhibitory concentration (IC50) is below 10 nM.
The value for `Cc1ccc(O)c(C)c1-n1c(N)c(C(N)=O)c2cc(S(=O)(=O)C3CC3)cnc21` [Compound 311] was below 10 nM; that for `Cc1cnc2c(n1)c(C(N)=O)c(N)n2-c1c(C)ccc(O)c1C` [Compound 285] was 11 nM.
The value for `Cc1ccc(O)cc1-n1c(N)c(C(N)=O)c2nc(-c3ccc(CC(=O)O)cc3)ccc21` [Compound 21] was 283 nM; that for `Cc1ccc(O)c(C)c1-n1c(N)c(C(N)=O)c2ncc(C#CC3CC3)nc21` [Compound 228] was 21 nM.
With `Cc1ccc(O)c(C)c1-n1c(N)c(C(N)=O)c2nc(N3CC4CCC(C3)O4)cnc21` [Compound 92] the figure was below 10 nM; with `Cc1ccc(O)c(C)c1-n1c(N)c(C(N)=O)c2ncc(C#CC3(C)COC3)nc21` [Compound 232], 11 nM; with `Cc1ccc(O)c(C)c1-n1c(N)c(C(N)=O)c2nc(C(=O)Nc3cccnc3)cnc21` [Compound 243, 6-amino-5-(3-hydroxy-2,6-dimethyl-phenyl)-N2-(3-pyridyl)pyrrolo[2,3-b]pyrazine-2,7-dicarboxamide], 69 nM.
With `Cc1ccc(O)c(C)c1-n1c(N)c(C(N)=O)c2nc(-c3ccns3)cnc21` [Compound 41], the IC50 was below 10 nM.
The value for `Cc1ccc(O)c(C)c1-n1c(N)c(C(N)=O)c2nc(-c3ccnnc3)cnc21` [Compound 250] was below 10 nM.
With `Cc1ccc(O)cc1-n1c(N)c(C(N)=O)c2nc(-c3cccc(C(=O)O)c3)ccc21` [Compound 9] the figure was 363 nM; with `Cc1ccc(O)c(C)c1-n1c(N)c(C(N)=O)c2nc(-c3ncco3)cnc21` [Compound 60], 10 nM; with `Cc1ccc(O)c(C)c1-n1c(N)c(C(N)=O)c2nc(C3(C(F)(F)F)CC3)cnc21` [Compound 198, 6-amino-5-(3-hydroxy-2,6-dimethyl-phenyl)-2-[1-(trifluoromethyl)cyclopropyl]pyrrolo[2,3-b]pyrazine-7-carboxamide], below 10 nM.
With `Cc1ccc(O)c(C)c1-n1c(N)c(C(N)=O)c2nc(N3CCOC(C)C3)cnc21` (stereo not drawn) [Compound 59] the figure was 12 nM; with `Cc1ccc(O)c(C)c1-n1c(N)c(C(N)=O)c2ncc(C#CC(C)(C)NS(C)(=O)=O)nc21` [Compound 223], 15 nM; with `CC(=O)c1c(N)n(-c2c(C)ccc(O)c2C)c2ncc(-c3cnccn3)nc12` [Compound 97, 1-[6-amino-5-(3-hydroxy-2,6-dimethyl-phenyl)-2-pyrazin-2-yl-pyrrolo[2,3-b]pyrazin-7-yl]ethenone], 12 nM.
For `Cc1ccc(O)cc1-n1c(N)c(C(N)=O)c2nc(C(F)(F)F)ccc21` [Compound 213], the IC50 worked out at 195 nM.
As to `CCCCc1cnc2c(n1)c(C(N)=O)c(N)n2-c1c(Cl)ccc(O)c1C` [Compound 107], the half-inhibitory concentration (IC50) was 12 nM.
With `Cc1ccc(O)c(C)c1-n1c(N)c(C(N)=O)c2nc(N3CCNC(=O)C3)cnc21` [Compound 66] the figure was 10 nM; with `Cc1ccc(O)c(C)c1-n1c(N)c(C(N)=O)c2nc(C3CCC3)cnc21` [Compound 173, 6-amino-2-cyclobutyl-5-(3-hydroxy-2,6-dimethyl-phenyl)pyrrolo[2,3-b]pyrazine-7-carboxamide], below 10 nM.
The value for `Cc1c(O)ccc(Cl)c1-n1c(N)c(C(N)=O)c2nc(-c3nccs3)cnc21` [Compound 42] was below 10 nM; that for `Cc1ccc(O)c(C)c1-n1c(N)c(C(N)=O)c2nc(-c3nc(C)c(C)s3)cnc21` [Compound 32] was below 10 nM; that for `CCNC(=O)c1cnc2c(n1)c(C(N)=O)c(N)n2-c1c(C)ccc(O)c1C` [Compound 244] was 16 nM.
The value for `Cc1ccc(O)cc1-n1c(N)c(C(N)=O)c2nc(-c3cccc(F)n3)ccc21` [Compound 25] was 399 nM.
With `Cc1ccc(O)c(C)c1-n1c(N)c(C(N)=O)c2ncc(C#CC3(O)CCC(F)(F)CC3)nc21` [Compound 242, 6-amino-3-[2-(4,4-difluoro-1-hydroxy-cyclohexyl)ethynyl]-5-(3-hydroxy-2,6-dimethyl-phenyl)pyrrolo[2,3-b]pyrazine-7-carboxamide], the IC50 is below 10 nM.
Regarding `Cc1ccc(O)c(C)c1-n1c(N)c(C(N)=O)c2nc(N3CCCC3)cnc21` [Compound 85], the IC50 is below 10 nM.
The value for `Cc1ccc(O)c(C)c1-n1c(N)c(C(N)=O)c2nc(-c3nc4ccccc4n3C)cnc21` [Compound 254] was 10 nM; that for `Cc1ccc(O)c(C)c1-n1c(N)c(C(N)=O)c2nc(-c3nc(C)c(C)o3)cnc21` [Compound 255] was 109 nM; that for `Cc1ccc(O)c(C)c1-n1c(N)c(C(N)=O)c2nc(-c3cccc(OC4CCOCC4)n3)cnc21` [Compound 258] was 3130 nM.
The value for `Cc1ccc(O)cc1-n1c(N)c(C(N)=O)c2nc(C3=CCCC3)ccc21` [Compound 6, 2-amino-5-(cyclopenten-1-yl)-1-(5-hydroxy-2-methyl-phenyl)pyrrolo[3,2-b]pyridine-3-carboxamide] was 1240 nM.
The value for `C=Cc1nc2c(C(N)=O)c(N)n(-c3c(C)ccc(O)c3C)c2nc1C(F)(F)F` [Compound 102, 6-amino-5-(3-hydroxy-2,6-dimethyl-phenyl)-3-(trifluoromethyl)-2-vinyl-pyrrolo[2,3-b]pyrazine-7-carboxamide] was 13 nM; that for `Cc1ccc(O)c(C)c1-n1cc(C(N)=O)c2nc(C)c(C)nc21` [Compound 209, 5-(3-hydroxy-2,6-dimethyl-phenyl)-2,3-dimethyl-pyrrolo[2,3-b]pyrazine-7-carboxamide] was 28 nM.
On to `Cc1ccc(O)cc1-n1c(N)c(C(N)=O)c2nc(-c3cn[nH]c3)ccc21` [Compound 5], for which the IC50 worked out at 277 nM.
With `COCCOCC#Cc1cnc2c(C(N)=O)c(N)n(-c3c(C)ccc(O)c3C)c2n1` [Compound 240] the figure was 191 nM.
With `Cc1ccc(O)cc1-n1c(N)c(C(N)=O)c2nc(CCCC(C)(C)O)ccc21` [Compound 19] the figure was 527 nM.
The value for `Cc1ccc(O)c(C)c1-n1c(N)c(C(N)=O)c2nc(-c3cc(C(F)(F)F)ccn3)cnc21` [Compound 36] was 14 nM.
`Cc1ccc(O)c(C)c1-n1c(N)c(C(N)=O)c2ncc(C#CCN(C)C)nc21` [Compound 226]: the IC50 came to 12 nM.
With `Cc1ccc(O)c(C)c1-n1c(N)c(C(N)=O)c2ncc(C#CC(C)(C)O)nc21` [Compound 239], the IC50 came to 15 nM.
As to `Cc1ccc(O)cc1-n1c(N)c(C(N)=O)c2nc(-c3ccn(C)n3)ccc21` [Compound 12], the IC50 came out at 988 nM.
With `Cc1ccc(O)c(C)c1-n1c(N)c(C(N)=O)c2cccnc21` [Compound 328] the figure was below 10 nM; with `Cc1ccc(O)cc1-n1c(N)c(C(N)=O)c2nc(-c3cccc(CC(=O)O)c3)ccc21` [Compound 20], 182 nM.
With `CNC(=O)C1CCN(c2cnc3c(n2)c(C(N)=O)c(N)n3-c2c(C)ccc(O)c2C)CC1` [Compound 46, 6-amino-5-(3-hydroxy-2,6-dimethyl-phenyl)-2-[4-(methylcarbamoyl)-1-piperidyl]pyrrolo[2,3-b]pyrazine-7-carboxamide] the figure was below 10 nM.
With `Cc1ccc(O)cc1-n1c(N)c(C(N)=O)c2nc(-c3nccs3)ccc21` [Compound 24] the figure was 29 nM.
